Earlier results, collected in US20050148628A1 (priority 2002, published 2005).

Settings: in vivo

OC(c1cc(C(F)(F)F)nc2c(C(F)(F)F)cccc12)C1CCCCN1 (stereo not shown) [mefloquine]
terminal elimination half-life: 2-3 weeks
